Entries after “also recorded” stand apart in the source; their conditions may differ.
Assays:
VEGF-C = experiment: Real time PCR gene expression in MVECs, VEGF-C; type: cell-based; set-up: key: increased (+); non-increased (−); settings: 1 ng/ml peptide
Description: (§1) Real Time PCR—MVECs from passage 3 were incubated for 24 hours in EBM-MV supplement-free medium (starving media). Following starvation, 1 ng/ml of synthetic peptides LT, QF, SP, TR, YR, and VL and 10 ng/ml of VEGF were added to the plates. Following 1.5 or 6 hours of incubation, total RNA was extracted using TRIsol reagent (Invitrogen Life Technologies, Carlsbad Calif., USA) and 0.8 μg of the extracted RNA was used as a template for reverse transcription (Invitrogen) using random primers (SuperScript III First-Strand Synthesis System for RT-PCR (hvitrogen, Carlsbad Calif., USA) according to the manufacturer's instructions. Resulting cDNAs were subjected to real time PCR amplification using the ABI prism 7000 Sequence Detection System (Applied Biosystems, Foster City, Calif., USA). Oligonucleotide primers were designed using Primer Express Software (Applied Biosystems, Foster City, Calif., USA) according the translated region of VEGF-A (Accession No:NM_003376), VEGF-C (Accession No:NM_005429), KDR (Accession No:NM_002253), FLT-1 (Accession No:NM_002019), HIF-α (Accession No:HSU22431), and GAPDH (Accession No:NM_002046) and are listed in Table 6, hereinbelow. Briefly, a reaction mixture of 20 μl consisting of DDW, oligonucleotide primers (500 nM), cDNA (3 μl), and SYBR Green PCR master kit (Applied Biosystems, Foster City, Calif., USA) was subjected to an amplification program of 15 seconds at 95° C., and 60 seconds at 60° C. for 40 cycles. Results were analyzed using the Sequence Detector Software Version 1 (Applied Biosystenis).
(§2) Peptides effect on gene expression in MVECs—The effect of the synthetic peptides on the expression in MVECs of selected genes (VEGF-A, VEGF-C, KDR, FLT-1 and HIF-1α) related to the VEGF pathway (a major pathway that participated in angiogenic process) was tested. Synthetic peptides were added at 1 ng/ml for 1.5 and 6 hours. After incubation with peptide, RNA was extracted from MVECs and Real Time PCR was performed. Gene expression was calculated as peptide/control (cells without peptide treatment) ratio.

HIF-1α = experiment: Real time PCR gene expression in MVECs, HIF-1α; type: cell-based; set-up: key: increased (+); non-increased (−); settings: 1 ng/ml peptide
Description: as §1, §2

HUVECs (ECs) [1] = experiment: EC (HUVEC) migration assay with synthetic peptides; type: cell-based, human; settings: 5, 10, 20 and 50 ng/ml, 5 hours
Description: Migration assays in the presence of synthetic peptides—EC migration was evaluated as described in Example 2, hereinabove. Following typsinization, ECs (25×10^3) were incubated in migration chambers. For the chemoattactant migration assay, synthetic peptides were added to the feeder tray at 5, 10, 20, and 50 ng/ml and incubated with the cells for 5 or 15 hours. For migration activation assays, synthetic peptides at 0.1, 1, and 10 ng/ml were incubated with the cells in the migration chamber for 5 or 15 hours.
(§3) Synthetic peptides induced proliferation or migration after and under hypoxia treatment—Cell proliferation or migration assays were performed as described in Example 3, hereinabove, except that cells were divided to 3 groups: control cells, cells after exposure to hypoxia conditions or cells proliferating under hypoxia conditions. For cell proliferation assays, ECs were incubated with QF, LT and SP and MVECs were incubated with LT, SP, and YR. For cell migration assays, ECs were incubated with EBM-2 and MVECs were incubated with EBM-MV media.

HUVECs (ECs) [2] = experiment: Tube formation assay, ECs (HUVECs); type: cell-based, human; settings: for EC tube formation compared to untreated cells: normoxic conditions, 10 ng/ml, matrigel
Description: (§4) Tube formation assay—ECs from passage 3 or MVECs from passage 4 were harvested with trypsin and incubated for 24 hours in SFM. Twenty-four—well plates were pre-coated with 250 μl of Cultrex Basement Membrane Extract with reduced growth factors (R&D Systems, Minneapolis, Minn., USA). Five hundred microliters of medium containing 10^6 cells were transferred to the coated wells. Synthetic peptides, FGF, YR, QF, or VL were added to ECs, and VEGF, YR, QF, or VL were added to MVECs at 10 ng/ml. Plates were incubated for 24 hours at 37° C. in the presence of 5% CO2. HUVECs and MVECs were photographed under a light microscope at 20 hours and 8 hours, respectively.
(§5) Tube formation assay after and under hypoxia treatment—Tube formation assay was performed as described in Example 3, hereinabove, except that the cells were divided to 3 groups: control cells, cells after exposure to hypoxia conditions, and cells on matrigel basement that form tubes under hypoxia treatment.

ECs (HUVECs) = experiment: EC migration assay with peptide-presenting phages (Chemicon QCM 96-well Migration Assay); type: cell-based, human; settings: 5 hours; for Migration of activated ECs (phages with ECs in migration chamber): 10^5 or 10^6 phages per well
Description: EC migration assay—EC migration was evaluated by the Chemicon QCM 96-well Migration Assay (Chemicon International, Temecula, Calif., USA) according to the manufacturer's instructions. Briefly, the kit's migration chamber comprises an insert membrane with 8 μm pores and a feeder tray containing the peptides as chemoattractants. Cell migration was evaluated by placing the cells in the migration chamber and following their migration to the bottom of the membrane.
For the migration/chemoattractant assay, ECs from passage 3 were incubated for 24 hours on gelatin-coated plates in the presence of the M199 SFM. Following trypsinization, 2×10^4 ECs were incubated for 5 hours in each of the 96 wells of the migration chamber. The peptide-presenting phages (10^5 or 10^6) were added to the feeder tray to chemoattractant the cells without being in physical contact with the cells. Cells which reached the bottom of the membrane (i.e., migratory cells) were dissociated from the membrane following the incubation with a cell detachment buffer. The migratory cells were subsequently lysed and detected by the molecular probe CyQuant GR dye which exerts green fluorescent enhancement when bound to cellular nucleic acid.
For activation migration assays, 10^5 or 10^6 peptide-presenting phages were incubated (for 5 hours) with ECs in the migration chamber. NO phages (unmodified M13 phages) served as negative control in both migration assays. Results were determined by a fluorescent ELISA reader at 480/520 nm (Fluostar BMG Lab Teck) and are presented in net values from which the control values were subtracted.

[3] = tested on: dermal microvascular endothelial cells (MVECs); experiment: Proliferation of dermal microvascular endothelial cells (MVECs) in the presence of synthetic peptides; type: cell-based; settings: for Increase of MVECs proliferation response / [^3H]-Thymidine uptake in MVECs: normoxia; for [^3H]-Thymidine uptake in MVECs: 0.1-100 ng/ml, 24 hours
Description: Proliferation of dermal microvascular endothelial cells (MVECs) in the presence of synthetic peptides—MVECs were incubated with synthetic peptides (LT, SP, and YR) as described above for HUVECs (ECs), except that the MVECs were seeded in EBM-MV medium containing supplements (Cambrex BioWhittaker Cell Biology Products) and MVECs from passage 4 (rather than 3) were used for proliferation experiments.
as §3

MVECs = experiment: Tube formation assay, MVECs; type: cell-based; settings: for MVEC tube formation compared to untreated cells: normoxic conditions, 10 ng/ml, matrigel
Description: as §4, §5

[4] = under hypoxia conditions, 18 hours

| Sequence | VEGF-C Expression after 1.5 hours (VEGF-C) | VEGF-C Expression after 6 hours (VEGF-C) | HIF Expression after 1.5 hours (HIF-1α) | HIF Expression after 6 hours (HIF-1α) | EC migration, peptides as chemoattractants in feeder tray (HUVECs (ECs) [1]) | EC tube formation compared to untreated cells (HUVECs (ECs) [2]) | Migration of activated ECs (phages with ECs in migration chamber) (ECs (HUVECs)) | EC migration, phages as chemoattractants on feeder tray (ECs (HUVECs); 10^6 phages per well) | [^3H]-Thymidine uptake / proliferation of MVECs after and under hypoxia [3] | Increase of MVECs proliferation after hypoxia ([3]; 1 ng/ml) [fold] | Increase of MVECs proliferation response ([3]; 1 ng/ml) [fold] | [^3H]-Thymidine uptake in MVECs [3] | Increase of MVECs proliferation under hypoxia ([3]; 10 ng/ml) [fold] | MVEC tube formation compared to untreated cells (MVECs) | EC tube formation under hypoxia (HUVECs (ECs) [2]; [4]) | Increase of MVECs proliferation after hypoxia ([3]; 10 ng/ml) [fold] | Increase of MVECs proliferation under hypoxia ([3]; 1 ng/ml) [fold] | MVEC tube formation under hypoxia (MVECs; [4]) | EC migration, phages as chemoattractants on feeder tray (ECs (HUVECs); 10^5 phages per well) |
| --- | --- | --- | --- | --- | --- | --- | --- | --- | --- | --- | --- | --- | --- | --- | --- | --- | --- | --- | --- |
| LLADTTHHRPWT (Phage displayed peptide) [LT] | + | + | − | − | dose-dependent induced migration | did not induce tube formation | induced migration | induce migration as chemoattractants | significant dose-dependent increase | 1.7 | 1.8 | significant increase | 1.7 | did not induce tube formation |  |  |  |  |  |
| QPWLEQAYYSTF (Phage displayed peptide) [QF] | + | + | + | − |  | increased tube formation; also recorded: significant increase in tube formation | induced migration | induce migration as chemoattractants | did not show increase proliferation |  |  |  |  | significant increase in tube formation |  |  |  |  |  |
| SAHGTSTGVPWP (Phage displayed peptide) | + | + |  |  | dose-dependent induced migration | did not induce tube formation |  | induce migration as chemoattractants | significant dose-dependent increase |  | 1.4 | significant increase |  | did not induce tube formation | effective only in tube formation under hypoxia conditions | 1.5 | 1.9 | effective only in tube formation under hypoxia conditions |  |
| TLPWLEESYWRP (Phage displayed peptide) [TR] | + | + | + | + | smaller effect of induced migration |  |  | induce migration as chemoattractants |  |  |  |  |  |  |  |  |  |  |  |
| VPWMEPAYQRFL (Phage displayed peptide) [VL] | + | + | + | + | smaller effect of induced migration | increased tube formation |  |  |  |  |  |  |  | significant increase in tube formation |  |  |  |  |  |
| YPHIDSLGHWRR (Phage displayed peptide) [YR] |  |  | − |  |  | increased tube formation |  |  |  |  | 1.7 | significant increase |  | significant increase in tube formation |  |  |  |  | induce migration as chemoattractants |

— patent US7473682B2, “Angiogenic peptides and uses thereof” (Ramot at Tel Aviv University Ltd., priority 2003, dated 2009)
